In patent US10344054B2, “Angiotensin-1-receptor antagonists” (Ferring B.V., priority 2016, dated 2019) one finds Emax and IC50 data, which are given here for twelve compounds.

The target of assay [1] is T1, hAT1R (Homo sapiens, UniProt P30556).
T1 sequence (P30556 1-359): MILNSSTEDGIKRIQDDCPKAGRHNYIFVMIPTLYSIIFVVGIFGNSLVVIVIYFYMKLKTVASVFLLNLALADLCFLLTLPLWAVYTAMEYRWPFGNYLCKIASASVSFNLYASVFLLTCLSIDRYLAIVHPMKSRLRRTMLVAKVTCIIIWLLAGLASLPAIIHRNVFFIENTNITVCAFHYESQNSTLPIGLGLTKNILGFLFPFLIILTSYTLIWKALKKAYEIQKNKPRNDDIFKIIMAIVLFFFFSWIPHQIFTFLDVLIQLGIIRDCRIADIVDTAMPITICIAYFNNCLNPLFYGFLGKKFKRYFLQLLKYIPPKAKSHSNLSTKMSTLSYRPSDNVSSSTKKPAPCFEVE
Kind of assay: FLIPR calcium flux assay, Part II: antagonist activity against Angiotensin II. As to hAT1R Antagonist Efficacy Antag (%) Ave: Angiotensin II 10 nM final concentration. The class given is cell-based. Conditions: for Emax: read-out: hAT1R Antagonist Efficacy Antag (%) Ave; for IC50: read-out: hAT1R Antagonist IC50 Ave. The procedure:
(§1) AT1 receptor (AT1R) agonists increase intracellular flux of calcium ions. AT1R antagonists can reduce the agonist effect. […] Compounds were first tested for agonism (Part I) followed by addition of the AT1R agonist angiotensin II to test for antagonist activity (Part II). This assay used a stable hAT1R expressing cell line (ChanTest hAT1R; ChanTest Corp A628). Intracellular flux of calcium in response to agonist was measured through real-time measurement of fluorescence induced through the interaction of Ca2+ (released from intracellular stores) and calcium-sensitive dye. In Part I, cells were exposed to varying concentrations of test compounds and immediately measured for agonist activity (EC50 and Efficacy).
(§2) ChanTest hAT1R stable cells were maintained in Ham's F12 containing 10% (v/v) heat inactivated fetal bovine serum (FBS-HI), 4 mM Glutamax, 1% NEAA, 50 ng/mL plasmocin, 400 μg/mL G418 at 37° C. under 5% CO2 in a humidified atmosphere.
(§3) For FLIPR assay, ChanTest hAT1R cells were trypsinized with 6 ml of Trypsin EDTA solution and harvested in phenol-red free DMEM containing 10% FBS-HI, 4 mM Glutamax and counted, spun down and resuspended in the same medium. The cell suspension was added to the wells of 384-well black PDL clear bottom plates at 2.5×10^4 cells/well, 20 μl/well.
(§4) Preparation of Loading Buffer:
(§5) • Loading Buffer: 1 vial of Calcium 5 Bulk Assay reagent was dissolved in 100 ml of 1× HBSS-20 mM Hepes buffer. • Probenecid was resuspended at 1 M in 1 M NaOH. Once the probenecid had gone into solution, an equal volume of H2O was added to make a solution of 500 mM followed by a 1:100 dilution in the Loading Buffer for a working concentration of 5 mM. The pH was adjusted to 7.4 using 1 M NaOH. Loading the Cells with Loading Buffer • Cell plates were removed from the incubator and 25 μl of Loading Buffer containing probenecid (5 mM) added to each well. • Plates were incubated for 1 hour at 37° C. under 5% CO2 in a humidified atmosphere. […] The remaining steps of the assay were carried forward by FLIPR Tetra. A baseline reading was taken at 1-second (s) intervals for 10 s followed by the addition of 5 μl of 10× compounds. The compound-induced fluorescence signal was then measured for 3 minutes with readings taken at 1-s intervals. • The cell plate was removed from the FLIPR and set aside for an additional 17 minutes. • The cell plate was then transferred back to the FLIPR Tetra, along with the 384 well Angiotensin II agonist dilution plate. A baseline reading was taken at 1-second (s) intervals for 10 seconds, followed by the addition of 5.5 μl of 10× Angiotensin II agonist. The agonist-induced fluorescence signal was then measured for 3 minutes with readings taken at 1-s intervals. • Overall, each well in the FLIPR assay was composed of the following components in a total volume of 55.5 μl:
(§6) Time-course results from the FLIPR Calcium 5 assay were expressed as relative fluorescence light units (RFU). The maximum minus minimum values (Max−Min) were used to quantify the strength of the signal. Mean RFU were calculated from replicate values and plotted on the y-axis versus compound concentration on a logarithmic scale on the x-axis, and a single-binding site, four parameter concentration response model: (MIN+((MAX−MIN)/(1+((EC50/x)^Hill)))), was used to perform non-linear regression analysis, generating concentration response curves. Reported parameters included agonist potency EC50 (the concentration causing half-maximal agonist response), antagonist potency IC50 (the concentration causing half-maximal inhibition of the agonist response for antagonist compounds) and efficacy (% MPE: percent of the maximal possible effect).
For orientation: Calcium assays in cells follow changes in intracellular calcium, usually with a dye or a luminescent sensor.

The target of assay [2] is T1, hAT1R. Kind of assay: FLIPR calcium flux assay, Part I: agonist activity. The class given is cell-based. Conditions: ChanTest hAT1R stable cells; % MPE, percent of the maximal possible effect; read-out: hAT1R Agonist Efficacy Agonist (%) Ave. The procedure:
as §1, §2, §3, §4, §5, §6

Structures are written as SMILES. Residues, ends and D or L forms follow the SMILES beside them.

As for `CNCC(=O)N[C@@H](CCCNC(=N)N)C(=O)N[C@H](C(=O)N[C@@H](Cc1ccc(O)cc1)C(=O)N[C@H](C(=O)N[C@@H](Cc1c[nH]cn1)C(=O)N1CCC[C@H]1C(=O)N[C@H](Cc1cccc2ccccc12)C(=O)O)C(C)C)C(C)C` [Compound 1, Sar-Arg-Val-Tyr-Val-His-Pro-(D-1Nal)-OH] (HELM PEPTIDE1{[Sar].R.V.Y.V.H.P.[O=C(O)[C@@H](Cc1cccc2ccccc12)N[*:1]]}$$$$V2.0), on hAT1R [1], the Emax was found to be 99% and the IC50 is 10.6 nM. Moreover, at hAT1R [2], the Emax amounted to 5%.
For `CNCC(=O)N[C@@H](CCCNC(=N)N)C(=O)N[C@H](C(=O)N[C@@H](Cc1ccc(O)cc1)C(=O)N[C@@H](CCCCN)C(=O)N[C@@H](Cc1c[nH]cn1)C(=O)N1CCC[C@H]1C(=O)N[C@H](Cc1cccc2ccccc12)C(=O)O)C(C)C` [Compound 2, Sar-Arg-Val-Tyr-Lys-His-Pro-(D-1Nal)-OH] (HELM PEPTIDE1{[Sar].R.V.Y.K.H.P.[O=C(O)[C@@H](Cc1cccc2ccccc12)N[*:1]]}$$$$V2.0), in that order: 100%, 16.5 nM and 1%.
For `CNCC(=O)N[C@@H](CCCNC(=N)N)C(=O)N[C@H](C(=O)N[C@@H](Cc1ccc(O)cc1)C(=O)N[C@H](C(=O)N[C@@H](Cc1c[nH]cn1)C(=O)N1CCC[C@H]1C(=O)N[C@H](Cc1ccccc1C(F)(F)F)C(=O)O)C(C)C)C(C)C` [Compound 3, Sar-Arg-Val-Tyr-Val-His-Pro-(D-Phe(2-CF3))—OH] (HELM PEPTIDE1{[Sar].R.V.Y.V.H.P.[O=C(O)[C@@H](Cc1ccccc1C(F)(F)F)N[*:1]]}$$$$V2.0), in that order: 99%, 23.6 nM and 5%.
On to `CNCC(=O)N[C@@H](CCCNC(=N)N)C(=O)N[C@H](C(=O)N[C@@H](Cc1ccc(O)cc1)C(=O)N[C@H](C(=O)N[C@@H](Cc1c[nH]cn1)C(=O)N1CCC[C@H]1C(=O)N[C@H](Cc1ccccc1Cl)C(=O)O)C(C)C)C(C)C` [Compound 4, Sar-Arg-Val-Tyr-Val-His-Pro-(D-Phe(2-Cl))—OH] (HELM PEPTIDE1{[Sar].R.V.Y.V.H.P.[O=C(O)[C@@H](Cc1ccccc1Cl)N[*:1]]}$$$$V2.0), for which the Emax at hAT1R [1] came out at 99%; at hAT1R [2], 6%. Moreover, the IC50 on hAT1R [1] stood at 10.7 nM.
With `CNCC(=O)N[C@@H](CCCNC(=N)N)C(=O)N[C@H](C(=O)N[C@@H](Cc1ccc(O)cc1)C(=O)N[C@H](C(=O)N[C@@H](Cc1c[nH]cn1)C(=O)N1CCC[C@H]1C(=O)N[C@H](Cc1ccccc1C#N)C(=O)O)C(C)C)C(C)C` [Compound 5, Sar-Arg-Val-Tyr-Val-His-Pro-(D-Phe(2-CN))—OH] (HELM PEPTIDE1{[Sar].R.V.Y.V.H.P.[N#Cc1ccccc1C[C@@H](N[*:1])C(=O)O]}$$$$V2.0), the Emax at hAT1R [1] stood at 100%; at hAT1R [2], 5%. In addition, the half-maximal inhibitory concentration (IC50) at hAT1R [1] was 59.6 nM.
The matching figures for `CNCC(=O)N[C@@H](CCCNC(=N)N)C(=O)N[C@H](C(=O)N[C@@H](Cc1ccc(O)cc1)C(=O)N[C@H](C(=O)N[C@@H](Cc1c[nH]cn1)C(=O)N1CCC[C@H]1C(=O)N[C@H](Cc1ccccc1-c1ccccc1)C(=O)O)C(C)C)C(C)C` [Compound 6, Sar-Arg-Val-Tyr-Val-His-Pro-(D-Phe(2-Ph))—OH] (HELM PEPTIDE1{[Sar].R.V.Y.V.H.P.[O=C(O)[C@@H](Cc1ccccc1-c1ccccc1)N[*:1]]}$$$$V2.0): 99%, 10% and 16.6 nM.
The matching figures for `CNCC(=O)N[C@@H](CCCNC(=N)N)C(=O)N[C@H](C(=O)N[C@@H](Cc1ccc(O)cc1)C(=O)N[C@H](C(=O)N[C@@H](Cc1c[nH]cn1)C(=O)N1CCC[C@H]1C(=O)N[C@H](Cc1ccc(Cl)cc1Cl)C(=O)O)C(C)C)C(C)C` [Compound 7, Sar-Arg-Val-Tyr-Val-His-Pro-(D-Phe(2,4-diCl))—OH] (HELM PEPTIDE1{[Sar].R.V.Y.V.H.P.[O=C(O)[C@@H](Cc1ccc(Cl)cc1Cl)N[*:1]]}$$$$V2.0): 99%, 12% and 6.4 nM.
For the compound `CNCC(=O)N[C@@H](CCCNC(=N)N)C(=O)N[C@H](C(=O)N[C@@H](Cc1ccc(O)cc1)C(=O)N[C@H](C(=O)N[C@@H](Cc1c[nH]cn1)C(=O)N1CCC[C@H]1C(=O)N[C@H](Cc1c(C)cccc1C)C(=O)O)C(C)C)C(C)C` [Compound 8, Sar-Arg-Val-Tyr-Val-His-Pro-(D-Phe(2,6-diMe))—OH] (HELM PEPTIDE1{[Sar].R.V.Y.V.H.P.[Cc1cccc(C)c1C[C@@H](N[*:1])C(=O)O]}$$$$V2.0), on hAT1R [1], the Emax turned out to be 101% and the IC50 worked out at 8.5 nM. Also, the Emax at hAT1R [2] was 3%.
The matching figures for `CNCC(=O)N[C@@H](CCCNC(=N)N)C(=O)N[C@H](C(=O)N[C@@H](Cc1ccc(O)cc1)C(=O)N[C@H](C(=O)N[C@@H](Cc1c[nH]cn1)C(=O)N1CCC[C@H]1C(=O)N[C@H](Cc1ccccc1C)C(=O)O)C(C)C)C(C)C` [Compound 9, Sar-Arg-Val-Tyr-Val-His-Pro-(D-Phe(2-Me))—OH] (HELM PEPTIDE1{[Sar].R.V.Y.V.H.P.[Cc1ccccc1C[C@@H](N[*:1])C(=O)O]}$$$$V2.0): 99%, 13.9 nM and 4%.
For `CNCC(=O)N[C@@H](CCCNC(=N)N)C(=O)N[C@H](C(=O)N[C@@H](Cc1ccc(O)cc1)C(=O)N[C@H](C(=O)N[C@@H](Cc1c[nH]cn1)C(=O)N1CCC[C@H]1C(=O)N[C@H](Cc1csc2ccccc12)C(=O)O)C(C)C)C(C)C` [Compound 10, Sar-Arg-Val-Tyr-Val-His-Pro-(D-(3-benzothienyl)alanine)-OH] (HELM PEPTIDE1{[Sar].R.V.Y.V.H.P.[O=C(O)[C@@H](Cc1csc2ccccc12)N[*:1]]}$$$$V2.0), in that order: 99%, 9.5 nM and 5%.
As to `CNCC(=O)N[C@@H](CCCNC(=N)N)C(=O)N[C@H](C(=O)N[C@@H](Cc1ccc(O)cc1)C(=O)N[C@H](C(=O)N[C@@H](Cc1c[nH]cn1)C(=O)N1CCC[C@H]1C(=O)N[C@H](Cc1ccccc1Br)C(=O)O)C(C)C)C(C)C` [Compound 11, Sar-Arg-Val-Tyr-Val-His-Pro-(D-Phe(2-Br))—OH] (HELM PEPTIDE1{[Sar].R.V.Y.V.H.P.[O=C(O)[C@@H](Cc1ccccc1Br)N[*:1]]}$$$$V2.0), on hAT1R [1], the Emax was 99% and the IC50 turned out to be 8.7 nM. Also, at hAT1R [2], the Emax was found to be 4%.
For `CNCC(=O)N[C@@H](CCCNC(=N)N)C(=O)N[C@H](C(=O)N[C@@H](Cc1ccc(O)cc1)C(=O)N[C@@H](Cc1ccc(O)cc1)C(=O)N[C@@H](Cc1c[nH]cn1)C(=O)N1CCC[C@H]1C(=O)N[C@H](Cc1cccc2ccccc12)C(=O)O)C(C)C` [Compound 12, Sar-Arg-Val-Tyr-Tyr-His-Pro-(D-1Nal)-OH], in that order: 100%, 3.4 nM and 5%.

The IC50 is the point on the concentration scale where inhibition reaches its midpoint.
